Where “and” joins values, the source holds several entries; their conditions need not be identical. Equal values may be shown once. Read-outs that look alike come from different tables or passages of the source.
Legend:
[1] = test system: chick retinal cells including neurons and glial cells; test: Cell viability assay using mixed culture of chick retinal neurons and glial cells (LIVE/DEAD stain); assay type: cell-based; conditions: for percentage of dead cells in the exposure to light (mean): 2.78% in the absence of NK-5962
Source text: Egg shells (Fukuda Breeders Co., Ltd., Okayama, Japan) were disinfected with 70% alcohol and 12-day-old chick embryos were removed from a small opening. The eyes at this embryonic stage were used because the outer segments of the retinal photoreceptor cells had not yet been developed. The eyes were enucleated and cut at the midperiphery of the globe and the anterior halves were removed together with the vitreous. The neurosensory retina at this embryonic stage could easily be peeled off from the eye cup. After peeling, retinal tissues were incubated in 0.25% trypsin, 1 mM ethylenediaminetetraacetic acid (EDTA) in Ca^2+, and Mg^2+-free Hanks’ balanced salt solution (HBSS) to disperse retinal cells. After centrifugation, the retinal cells were washed with Dulbecco’s modified Eagle’s medium (DMEM) and seeded at a concentration of 3.5 × 10^5 cell/mL in poly-L-lysine-coated wells of a 96-well multidish containing DMEM supplemented with 10% fetal bovine serum (FBS), 100 mg/L streptomycin, and 100 mg/L ampicillin.
In order to determine the types of cells, either neurons or glial cells derived from neurosensory retinal tissues, retinal cells following 2-day culture were stained for neuron-specific enolase and glial fibrillary acidic protein by immunocytochemistry. The majority of retinal cells at day 2 of the culture were neurons mixed with a small number of glial cells (Figure 2).
Retinal cells at a concentration of 3.5 × 10^5 cell/mL in 220 μL of DMEM with 10% FBS were cultured together with 20 μL of varying concentrations of NK-5962 for 2 days either under protection from light or under light from a fluorescent lamp at 230 lux for 9 h daily. The final concentrations of NK-5962 in the solution were 1.6 × 10^−5, 1.6 × 10^−6, and 1.6 × 10^−7 M. Cells were then incubated for 15 min with SYTO 10 Green fluorescent nucleic acid stain and DEAD Red nucleic acid stain (LIVE/DEAD Reduced Biohazard Viability/Cytotoxicity Kit: Molecular Probes; Thermo Fisher Scientific, Waltham, MA, USA) in HEPES-buffered saline. After being fixed with 4% glutaraldehyde in HEPES-buffered saline, live cells and dead cells were visualized with a 100 W mercury lamp as a light source under a fluorescence inverted microscope through a set of FITC and PI filters (Olympus IX71; Olympus Life Sciences, Tokyo, Japan). Images in the center of each well were captured with a CCD camera and stored in a computer. Three wells were assigned to each condition of incubation in one series of experiments and the entire procedure was repeated three times on different days to obtain nine results for each condition. Green live cells (stained with SYTO 10 Green) and orange dead cells (stained with both SYTO10 Green and DEAD RED) in the images for each well were counted and the percentage of dead cells to the total cells was analyzed statistically (Figure 2).

[2] = In vivo pharmacokinetics, oral administration; design: species or system rat; conditions: for Kp at 8 h: eye ball / plasma, read-out: Eye Ball/Plasma Ratio(Kp); for bioavailability: oral, read-out: absolute bioavailability
Experimental: Male Sprague Dawley (SD) and Wistar rats (5-week old) were obtained from Charles River Laboratories Japan (Yokohama, Japan) and Japan SLC, Inc. (Hamamatsu, Japan), respectively. All animals were maintained in air-conditioned quarters with room temperatures of 20 ± 2 °C, relative humidity of 50 ± 10%, and an alternating 12 h light/dark cycle. The rats were fed a certified diet MF (Oriental Yeast Co., Tokyo, Japan) and water ad libitum. The studies were conducted in accordance with the guidelines provided by the Animal Care and Use Committee of Osaka University (Identifier DouyakuR01-3-1).
A test compound (NK-5962) solution in 50% DMSO/water was injected intravenously (i.v.) to male SD rats. A test compound suspension in 0.5% methyl cellulose was administered orally (p.o.) to male Wistar rats. The dosage of the test compound was 1 mg/2 mL/kg (i.v.) and 10 or 100 mg/10 mL/kg (p.o.). Blood samples were collected from the jugular vein at 5 and 15 min and 1 h (i.v.) by using pre-heparinized syringe after the intravenous administration or from the caudal vein at 15 and 30 min, 1, 2 and 4 h (p.o.) by using heparinized capillary tube after the oral administration. At 30 min and 2 h (i.v.) or 8 h (p.o.), blood samples were collected from the abdominal aorta under isoflurane anesthesia and the eye balls and the whole brain were excised immediately.
Plasma was prepared by centrifugation of the blood samples. Plasma and tissues were stored at −80 °C. The tissues were homogenized with a four-fold volume of phosphate-buffered saline to obtain a 20% tissue homogenate. Plasma and 20% tissue homogenates were precipitated with 4–20 volumes of acetonitrile/IS and centrifuged at 15,000× g at 4 °C for 10 min. The supernatants were analyzed by liquid chromatography and tandem mass spectrometry (LC-MS/MS). Standard non-compartmental analysis was performed to determine the pharmacokinetic parameters: elimination half-life (t1/2) and area under the concentration time curve from time zero to infinity (AUC∞). The absolute bioavailability (BA) of the oral dose was calculated as AUC∞ (p.o.)/AUC∞ (i.v.).
Liquid chromatography and tandem mass spectrometry instrument (LC-MS8060) equipped with Shimadzu Nexera series LC system (Shimadzu, Kyoto, Japan) were used. All compounds were analyzed in multi-reaction monitoring mode under electron spray ionization conditions. The analytical column used was a […] C18 MGIII (3 μm × 2.0 mmID × 35 mm; OSAKA SODA, Osaka, Japan) at 50 °C. The gradient mobile phase consisted of 0.1% formic acid in water (mobile phase A) and 0.1% formic acid in acetonitrile (mobile phase B) at a total flow rate of 1 mL/minute. The initial mobile phase composition was 10% B, which was held constant for 0.2 min, increased in a linear fashion to 90% B over 1 min, then held constant for 0.8 min, and then finally brought back to the initial condition of 10% B over 0.01 min and re-equilibrated for 1 min. The transitions (precursor ion > product ion) of NK-5962 and IS (methyl testosterone) are 433.2 > 279.2 and 303.1 > 109.1 (positive), respectively.

[3] = 0.16 μM NK-5962, exposure to light
[4] = 1.6 μM NK-5962, exposure to light
[5] = 16 μM NK-5962, exposure to light

CCCCN(CCCC)c1ccc(C=Cc2sc3ccccc3[n+]2CC(=O)O)cc1.[Br-] [NK-5962, 2-[2-[4-(dibutylamino)phenyl]ethenyl]-3-carboxymethylbenzothiazolium bromide]
rate of the percentage of dead cells compared with the absence of NK-5962 [1, 3]: 105% | percentage of dead cells in the exposure to light (mean) [1, 3]: 2.93% | rate of the percentage of dead cells compared with the absence of NK-5962 [1, 4]: 68% | percentage of dead cells in the exposure to light (mean) [1, 4]: 1.89% | rate of the percentage of dead cells compared with the absence of NK-5962 [1, 5]: 42% | percentage of dead cells in the exposure to light (mean) [1, 5]: 1.17% | IC50 ([1]; Gallus gallus, corrected with non-binding ratio 0.34 in 10% FBS, read-out: IC50 based on free form of NK-5962): 1700 nM | maximum plasma concentration after the oral administration ([2]; excluding the 8 h values suspected of contamination): 17 nM | maximum eye ball concentration expected after oral administration ([2]; from maximum plasma concentration and eye ball/plasma ratio 0.072): 1.3 nM | Kp at 8 h ([2]; male, Wistar, oral 10 mg/kg, single rat): < 0.059 | Kp at 8 h ([2]; male, Wistar, oral 100 mg/kg, single rat): 0.072 | concentration at 8 h ([2]; male, Wistar, rat, eye ball, po, 10 mg/kg, oral 10 mg/kg, single rat, read-out: Eye Ball Concentration): < 0.1 nM | concentration at 8 h ([2]; male, Wistar, rat, eye ball, po, 100 mg/kg, oral 100 mg/kg, single rat, read-out: Eye Ball Concentration): 0.33 nM | bioavailability ([2]; male, Wistar, rat, plasma, 10 mg/kg): < 1% | bioavailability ([2]; male, Wistar, rat, plasma, 100 mg/kg): < 1% | concentration at 0.25 h ([2]; male, Wistar, rat, plasma, po, 10 mg/kg, oral 10 mg/kg, 0.25 h, single rat): 2.42 nM | concentration at 0.5 h ([2]; male, Wistar, rat, plasma, po, 10 mg/kg, oral 10 mg/kg, 0.5 h, single rat): 1.51 nM | concentration at 1 h ([2]; male, Wistar, rat, plasma, po, 10 mg/kg, oral 10 mg/kg, 1 h, single rat): 2.11 nM | concentration at 2 h ([2]; male, Wistar, rat, plasma, po, 10 mg/kg, oral 10 mg/kg, 2 h, single rat): 1.76 nM | concentration at 4 h ([2]; male, Wistar, rat, plasma, po, 10 mg/kg, oral 10 mg/kg, 4 h, single rat): 0.8 nM | concentration at 8 h ([2]; male, Wistar, rat, plasma, po, 10 mg/kg, oral 10 mg/kg, single rat, * value deemed erroneous by contamination, read-out: Plasma Concentration): 1.69 nM | concentration at 0.25 h ([2]; male, Wistar, rat, plasma, po, 100 mg/kg, oral 100 mg/kg, 0.25 h, single rat): 11.7 nM | concentration at 0.5 h ([2]; male, Wistar, rat, plasma, po, 100 mg/kg, oral 100 mg/kg, 0.5 h, single rat): 14.6 nM | concentration at 1 h ([2]; male, Wistar, rat, plasma, po, 100 mg/kg, oral 100 mg/kg, 1 h, single rat): 17 nM | concentration at 2 h ([2]; male, Wistar, rat, plasma, po, 100 mg/kg, oral 100 mg/kg, 2 h, single rat): 17.2 nM | concentration at 8 h ([2]; male, Wistar, rat, plasma, po, 100 mg/kg, oral 100 mg/kg, single rat, * value deemed erroneous by contamination, read-out: Plasma Concentration): 4.57 nM | Plasma Concentration ([2]; oral 10 mg/kg, 0.25 h, single rat, 10 mg/kg): 1.71 nM | Plasma Concentration ([2]; oral 10 mg/kg, 0.5 h, single rat, 10 mg/kg): 1.90 nM | Plasma Concentration ([2]; oral 10 mg/kg, 1 h, single rat, 10 mg/kg): 2.26 nM | Plasma Concentration ([2]; oral 10 mg/kg, 2 h, single rat, 10 mg/kg): 1.51 nM | Plasma Concentration ([2]; oral 10 mg/kg, 4 h, single rat, 10 mg/kg): 1.20 nM | Plasma Concentration ([2]; oral 100 mg/kg, 0.25 h, single rat, 100 mg/kg): 6.17 nM | Plasma Concentration ([2]; oral 100 mg/kg, 0.5 h, single rat, 100 mg/kg): 11.15 nM | Plasma Concentration ([2]; oral 100 mg/kg, 1 h, single rat, 100 mg/kg): 17.43 nM | Plasma Concentration ([2]; oral 100 mg/kg, 2 h, single rat, 100 mg/kg): 11.51 nM | Plasma Concentration ([2]; oral 100 mg/kg, 4 h, single rat, 100 mg/kg): 11.52 nM and 5.75 nM | concentration at 8 h ([2]; oral 100 mg/kg, single rat, 100 mg/kg, read-out: Eye Ball Concentration): 0.40 nM
